# Measured values: EP4806435A1, “DIHYDROCHROMENE-DERIVATIVE-CONTAINING THERAPEUTIC AGENT FOR CANCER” (Sumitomo Pharma Co., Ltd., priority 2023, dated 2025)
# Legend:
# B16 cells = assay: Efficacy in anti-PD-1 antibody-resistant in vivo model; design: species or system C57BL/6J mice; settings: 10 mg/kg, once daily; B16 intradermal; versus nivolumab 5 mg/kg once weekly
# Method: B16 cells (5 x 10^5 cells; obtained from the JCRB Cell Bank) were intradermally implanted into C57BL/6J mice to establish tumors. On day 12 after implantation, administration of Compound 1 (10 mg/kg, once daily) or an anti-PD-1 antibody (nivolumab, 5 mg/kg, once weekly) was initiated, and the efficacy of each monotherapy group was compared with that of the control group.
# [1] = tested on: luciferase-expressing U-87 cells; assay: In vivo efficacy, combination with bevacizumab, orthotopic brain tumor (IVIS imaging); settings: Compound 1 10 mg/kg twice daily (once daily from day 30) + bevacizumab 1 mg/kg twice weekly; brain tumors in immunodeficient mice
# Method: Luciferase-expressing U-87 cells, in which the luminescent enzyme luciferase was forcibly expressed, were established (obtained from ATCC (American Type Culture Collection)). 1 x 10^6 of these cells were implanted into the brains of immunodeficient mice to establish brain tumors. On day 18 after tumor cell implantation, administration was initiated with Compound 1 at 10 mg/kg (twice daily) and bevacizumab at 1 mg/kg (twice weekly). On day 30, the dosing frequency of Compound 1 was reduced to once daily. The efficacy of each monotherapy and the combination therapy was evaluated by quantifying orthotopic tumor progression using an IVIS Imaging System and comparing the results.
compound,measurement,setting,value
"CC1(C)Oc2cc(Cl)ccc2[C@@H]2OCC3(CCN(CCn4ccnc4)CC3)C[C@H]21 [Compound 1, (4'aR,10'bR)-8'-chloro-1-[2-(1H-imidazol-1-yl)ethyl]-5',5'-dimethyl-4'a,10'b-dihydro-2'H,4'H,5'H-spiro[piperidine-4,3'-pyrano[3,2-c][1]benzopyran] diphosphate]",tumor growth inhibition as monotherapy,B16 cells,statistically significant inhibition of tumor growth compared with the nivolumab-treated group
same,antitumor effect in combination with bevacizumab,[1],remarkably enhanced antitumor effect
